Counter-ions that a name gives are not always drawn.

What is called melting point is the temperature of the solid-liquid transition. As for `CCOC(=O)c1c(Cc2ccc(S(=O)(=O)N(C)C)cc2)c(C)nn1C/C(F)=C/CN` (as salt: hydrochloride) [Compound 27, (Z)-ethyl 1-(4-amino-2-fluorobut-2-enyl)-4-(4-(N,N-dimethylsulfamoyl)benzyl)-3-methyl-1H-pyrazole-5-carboxylate hydrochloride], the melting point was in the range of 157 to 159 °C. The figure for `Cc1nn(C/C(F)=C/CN)c(C)c1Cc1ccc(C(=O)N(C)C)cc1` (as salt: hydrochloride) [Compound 14, (Z)-4-((1-(4-amino-2-fluorobut-2-en-1-yl)-3,5-dimethyl-1H-pyrazol-4-yl)methyl)-N,N-dimethylbenzamide hydrochloride] is 75 to 82 °C.

Compound `CNS(=O)(=O)c1ccc(Cn2nc(C)c(C/C(F)=C/CN)c2C)c(Cl)c1` (as salt: hydrochloride) [Compound 20, (Z)-4-((4-(4-amino-2-fluorobut-2-en-1-yl)-3,5-dimethyl-1H-pyrazol-1-yl)methyl)-3-chloro-N-methylbenzenesulfonamide hydrochloride] registered a melting point of 80 to 86 °C. As for `Cc1nn(Cc2ccc(S(=O)(=O)N(C)C)cc2)c(C)c1C/C(F)=C/CN` (as salt: hydrochloride) [Compound 10, (Z)-4-((4-(4-amino-2-fluorobut-2-en-1-yl)-3,5-dimethyl-1H-pyrazol-1-yl)methyl)-N,N-dimethylbenzenesulfonamide hydrochloride], the figure is 180 to 185 °C. As for `Cc1nn(C/C(F)=C/CN)c(C(=O)O)c1Cc1ccc(S(=O)(=O)N(C)C)cc1` (as salt: hydrochloride) [Compound 30, (Z)-1-(4-amino-2-fluorobut-2-enyl)-4-(4-(N,N-dimethylsulfamoyl)benzyl)-3-methyl-1H-pyrazole-5-carboxylic acid hydrochloride], the figure is 164 to 166 °C. The figure for `Cc1nn(Cc2ccc(S(C)(=O)=O)c(Cl)c2)c(C)c1C/C(F)=C/CN` (as salt: hydrochloride) [Compound 24, (Z)-4-(1-(3-chloro-4-(methylsulfonyl)benzyl)-3,5-dimethyl-1H-pyrazol-4-yl)-3-fluorobut-2-en-1-amine hydrochloride] is 92 to 94 °C.

Values taken from patent US20200069648A1, “HALOALLYLAMINE PYRAZOLE DERIVATIVE INHIBITORS OF LYSYL OXIDASES AND USES THEREOF” (Pharmaxis Ltd., priority 2017, published 2020).
